In patent US20240360175A1, “PEPTIDE DERIVATIVES AND RELATED USES AS OREXIN AGONISTS” (Centessa Pharmaceuticals (UK) Limited, priority 2021, published 2024):
Read-outs that look alike come from different tables or passages of the source. Numbered stars: 1 amine (or outer) side, 2 acyl side, 3 side chain; on linkers, the order of the positions; unused ones are H or OH. Square brackets hold non-standard residues; d marks the D form. Peptide text beside a SMILES is read from it. * marks the point of attachment. Malonyl(2,2-Me2,histaminyl) = CC(C)(C(=O)NCCc1cnc[nH]1)C(=O)*; hArg(Et2) = CCN=C(NCC)NCCCC[C@H](N)C(=O)O; PEG8 = NCCOCCOCCOCCOCCOCCOCCOCCOCCC(=O)O; Phe(3-Br) = N[C@@H](Cc1cccc(Br)c1)C(=O)O; X1 = O=C(CN(CCc1ccc2ccccc2c1)[*:1])[*:2]; X2 = O=C([C@@H](N[*:1])c1cccc(O)c1)[*:2]; X6 = O=C(CN(CCc1cccc2ccccc12)[*:1])[*:2]; Gly(NCH2CH2Ph) = O=C(O)CNCCc1ccccc1; PEG6 = NCCOCCOCCOCCOCCOCCOCCC(=O)O; Hyp = O=C(O)[C@@H]1C[C@@H](O)CN1; NMeN = CN[C@@H](CC(N)=O)C(=O)O; X5 = COCCOCCOCCOCCOCCOCCC(=O)*; Aoc(2) = CCCCCC[C@H](N)C(=O)O; Ahp(2) = CCCCC[C@H](N)C(=O)O; Phg = N[C@H](C(=O)O)c1ccccc1; Cbz = O=C(OCc1ccccc1)*

Legend:
[1] = target: T1, human orexin type 1 receptor (hOX1R) (Homo sapiens, UniProt O43613); test: Measurement of orexin type 1 receptor agonist activity (FLIPR TETRA intracellular Ca2+ fluorescence); type: cell-based
T1 construct: expressed in transfected cells
T1 sequence (O43613 1-425): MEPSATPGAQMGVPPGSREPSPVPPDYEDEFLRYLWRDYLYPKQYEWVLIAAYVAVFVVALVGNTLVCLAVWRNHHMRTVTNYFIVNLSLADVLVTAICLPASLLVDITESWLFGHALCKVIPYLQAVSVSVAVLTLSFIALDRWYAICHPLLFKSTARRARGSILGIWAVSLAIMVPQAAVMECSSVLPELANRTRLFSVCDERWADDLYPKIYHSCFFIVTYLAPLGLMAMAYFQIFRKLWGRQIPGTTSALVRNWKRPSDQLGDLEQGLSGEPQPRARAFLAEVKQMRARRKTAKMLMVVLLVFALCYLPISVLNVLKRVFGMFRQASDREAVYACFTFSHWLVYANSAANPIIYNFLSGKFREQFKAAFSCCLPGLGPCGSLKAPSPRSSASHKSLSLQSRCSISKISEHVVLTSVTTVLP
Protocol: (§1) Stable cell line generation. Obtainment of cells stably expressing either human orexin type 2 or human orexin type 1 receptor: to obtain a stable cell line the Orexin receptor cDNA was inserted into pcDNA3.1(+) plasmid vector and clones identified by G418 drug resistance selection. […] A single clone for OX2R—CHO and OX1R—CHO were grown in bulk and frozen to generate a cell bank for routine screening.
(§2) Measurement of orexin type 1 receptor agonist activity. Chinese hamster ovary (CHO) cells expressing human orexin type 1 receptor (hOX1R) were seeded in each well of 384 well black clear bottom plates (BD Flacon) at 10,000 cells per well and cultured for 24 h in an Ham's F12 (Gibco) medium containing 10% fetal calf serum (Sigma Aldrich) under the conditions of 37° C., 5% CO2. After removal of the medium, 50 μL of assay buffer 1 (0.1% bovine serum albumin (Sigma Aldrich), 20 mM HEPES (Molecular Dimensions), […] probenecid (Sigma Aldrich), 1× Calcium 5 dye (Molecular Devices) in Hank's balanced salt solution (Invitrogen)) was added, and the cells were incubated for 60 min under the conditions of 37° C., 5% CO2. A test peptide was dissolved in dimethyl sulfoxide (Sigma Aldrich) to 1 mM, and then diluted with assay buffer 2 (20 mM HEPES, Hank's balanced salt solution, 0.1% bovine serum albumin). For the reaction, a test peptide solution (10 μl) was added using Fluorescent Imaging Plate Reader TETRA (FLIPR TETRA: manufactured by Molecular Devices), a fluorescence value (excitation wavelength 488 nm, measurement wavelength 570 nm) of each well was measured every one second for 2 min, and the agonist activity was determined using the area of the fluorescence value as an indicator of intracellular Ca^2+ concentration. The agonist activity of the test peptide was calculated assuming that the fluorescence value of the well added with only the dilution buffer was 0% and the fluorescence value of the well added with 10 nM human orexin A (Tocris) buffer was 100%. As used herein, Emax indicates the value at 1 μM concentration when orexin A is converted to a full agonist (maximum value of agonist activity: 100%).

[2] = target: T2, human orexin type 2 receptor (hOX2R) (Homo sapiens, UniProt O43614); test: Measurement of orexin type 2 receptor agonist activity (FLIPR TETRA intracellular Ca2+ fluorescence); type: cell-based
T2 construct: expressed in transfected cells
T2 sequence (O43614 1-444): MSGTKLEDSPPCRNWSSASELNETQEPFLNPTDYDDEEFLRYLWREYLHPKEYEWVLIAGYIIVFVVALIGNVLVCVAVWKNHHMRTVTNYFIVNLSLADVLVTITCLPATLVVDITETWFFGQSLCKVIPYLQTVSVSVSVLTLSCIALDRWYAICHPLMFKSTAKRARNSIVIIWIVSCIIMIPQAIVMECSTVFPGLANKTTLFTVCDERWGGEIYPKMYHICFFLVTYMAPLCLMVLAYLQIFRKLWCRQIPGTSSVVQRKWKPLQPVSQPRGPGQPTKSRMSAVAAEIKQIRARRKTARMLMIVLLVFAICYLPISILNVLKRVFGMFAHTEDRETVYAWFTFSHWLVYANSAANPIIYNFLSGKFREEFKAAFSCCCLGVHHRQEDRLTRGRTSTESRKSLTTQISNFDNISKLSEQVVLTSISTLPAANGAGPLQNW
Protocol: as §1
as §2, with “type 2” for “type 1”, “receptor (hOX2R)” for “receptor (hOX1R) were”

[3] = CHO cells expressing hOX1R, agonist activity, Ca2+ fluorescence, read-out: hOX1 pEC50 (converted)
[4] = CHO cells expressing hOX2R, agonist activity, Ca2+ fluorescence, read-out: hOX2 pEC50 (converted)

Row | EC50 [1, 3] | EC50 [2, 4] | Compound | EC50 [1] | EC50 [2]
1 | 1 to 10 nM | < 0.1 nM | CC[C@H](C)[C@H](NC(=O)CNC(=O)[C@@H](NC(=O)[C@H](C)NC(=O)[C@@H]1C[C@@H](O)CN1C(=O)[C@H](CC(N)=O)NC(=O)CN(CCc1ccc2ccccc2c1)C(=O)[C@@H](N)CCCNC(=N)N)c1ccccc1)C(=O)N[C@@H](CC(C)C)C(=O)N[C@H](C(=O)N[C@@H](Cc1cccc(Br)c1)C(N)=O)[C@@H](C)O [Peptide 13] (H-R[X1]N[Hyp]A[Phg]GILT[Phe(3-Br)]-NH2) |  | 
2 | > 10 nM | < 0.1 nM | CCCCCC[C@H](NC(=O)[C@@H](NC(=O)[C@H](CC(C)C)NC(=O)[C@@H](NC(=O)CNC(=O)[C@@H](NC(=O)[C@H](C)NC(=O)[C@H](Cc1c[nH]cn1)NC(=O)[C@H](CC(N)=O)NC(=O)CN(CCc1ccccc1)C(=O)[C@@H](N)CCCCN/C(=N/CC)NCC)c1cccc(O)c1)[C@@H](C)CC)[C@@H](C)O)C(N)=O [Peptide 17] (H-[hArg(Et2)][Gly(NCH2CH2Ph)]NHA[X2]GILT[Aoc(2)]-NH2) |  | 
3 | > 10 nM | < 0.1 nM | CCCCC[C@H](NC(=O)[C@@H](NC(=O)[C@H](CC(C)C)NC(=O)[C@@H](NC(=O)CNC(=O)[C@@H](NC(=O)[C@H](C)NC(=O)[C@@H]1C[C@@H](O)CN1C(=O)[C@H](CC(N)=O)N(C)C(=O)CN(CCc1ccccc1)C(=O)[C@H](CCCNC(=N)N)NC(=O)CCOCCOCCOCCOCCOCCOCCN)c1ccccc1)[C@@H](C)CC)[C@@H](C)O)C(N)=O [Peptide 30] (H-[PEG6]R[Gly(NCH2CH2Ph)][NMeN][Hyp]A[Phg]GILT[Ahp(2)]-NH2) |  | 
4 | > 10 nM | < 0.1 nM | CCCCCC[C@H](NC(=O)[C@@H](NC(=O)[C@H](CC(C)C)NC(=O)[C@@H](NC(=O)CNC(=O)[C@@H](NC(=O)[C@H](C)NC(=O)[C@@H]1C[C@@H](O)CN1C(=O)[C@H](CC(N)=O)NC(=O)CN(CCc1ccccc1)C(=O)[C@@H](N)CCCCN/C(=N/CC)NCC)c1ccccc1)[C@@H](C)CC)[C@@H](C)O)C(N)=O [Peptide 4] (H-[hArg(Et2)][Gly(NCH2CH2Ph)]N[Hyp]A[Phg]GILT[Aoc(2)]-NH2) |  | 
5 | 1 to 10 nM | < 0.1 nM | CCCCCC[C@H](NC(=O)[C@@H](NC(=O)[C@H](CC(C)C)NC(=O)[C@@H](NC(=O)CNC(=O)[C@@H](NC(=O)[C@H](C)NC(=O)[C@H](Cc1c[nH]cn1)NC(=O)[C@H](CC(N)=O)NC(=O)CN(CCc1ccc2ccccc2c1)C(=O)[C@@H](N)CCCCNC(=NCC)NCC)c1ccccc1)[C@@H](C)CC)[C@@H](C)O)C(N)=O [Peptide 11] (H-[hArg(Et2)][X1]NHA[Phg]GILT[Aoc(2)]-NH2; N-terminus assumed) |  | 
6 | > 10 nM | < 0.1 nM | CCCCCC[C@H](NC(=O)[C@@H](NC(=O)[C@H](CC(C)C)NC(=O)[C@@H](NC(=O)CNC(=O)[C@@H](NC(=O)[C@H](C)NC(=O)[C@@H]1C[C@@H](O)CN1C(=O)[C@H](CC(N)=O)NC(=O)CN(CCc1ccccc1)C(=O)[C@H](CCCNC(=N)N)NC(=O)CCOCCOCCOCCOCCOCCOCCOCCOCCN)c1ccccc1)[C@@H](C)CC)[C@@H](C)O)C(N)=O [Peptide 8] (H-[PEG8]R[Gly(NCH2CH2Ph)]N[Hyp]A[Phg]GILT[Aoc(2)]-NH2) |  | 
7 | 1 to 10 nM | < 0.1 nM | CC[C@H](C)[C@H](NC(=O)CNC(=O)[C@@H](NC(=O)[C@H](C)NC(=O)[C@@H]1C[C@@H](O)CN1C(=O)[C@H](CC(N)=O)NC(=O)CN(CCc1cccc2ccccc12)C(=O)[C@@H](N)CCCNC(=N)N)c1ccccc1)C(=O)N[C@@H](CC(C)C)C(=O)N[C@H](C(=O)N[C@@H](Cc1cccc(Br)c1)C(N)=O)[C@@H](C)O [Peptide 16] (H-R[X6]N[Hyp]A[Phg]GILT[Phe(3-Br)]-NH2) |  | 
8 | > 10 nM | < 0.1 nM | CCCCCC[C@H](NC(=O)[C@@H](NC(=O)[C@H](CC(C)C)NC(=O)[C@@H](NC(=O)CNC(=O)[C@@H](NC(=O)[C@H](C)NC(=O)[C@@H]1C[C@@H](O)CN1C(=O)[C@H](CC(N)=O)NC(=O)CN(CCc1ccccc1)C(=O)[C@H](CCCCNC(=NCC)NCC)NC(=O)OCc1ccccc1)c1ccccc1)[C@@H](C)CC)[C@@H](C)O)C(N)=O [Peptide 10] (Cbz-[hArg(Et2)][Gly(NCH2CH2Ph)]N[Hyp]A[Phg]GILT[Aoc(2)]-NH2) |  | 
9 |  |  | CCCCCC[C@H](NC(=O)[C@@H](NC(=O)[C@H](CC(C)C)NC(=O)[C@@H](NC(=O)CNC(=O)[C@@H](NC(=O)[C@H](C)NC(=O)[C@H](Cc1c[nH]cn1)NC(=O)[C@H](CC(N)=O)NC(=O)CN(CCc1ccccc1)C(=O)[C@H](CCCCNC(=NCC)NCC)NC(=O)[C@H](CCC(N)=O)NC(=O)C(C)(C)C(=O)NCCc1cnc[nH]1)c1ccccc1)[C@@H](C)CC)[C@@H](C)O)C(N)=O [Peptide 26] ({Malonyl(2,2-Me2,histaminyl)}-Q[hArg(Et2)][Gly(NCH2CH2Ph)]NHA[Phg]GILT[Aoc(2)]-NH2) | > 10 nM | < 0.1 nM
10 | > 10 nM | < 0.1 nM | CCCCCC[C@H](NC(=O)[C@@H](NC(=O)[C@H](CC(C)C)NC(=O)[C@@H](NC(=O)CNC(=O)[C@@H](NC(=O)[C@H](C)NC(=O)[C@@H]1C[C@@H](O)CN1C(=O)[C@H](CC(N)=O)NC(=O)CN(CCc1ccccc1)C(=O)[C@H](CCCCN/C(=N/CC)NCC)NC(=O)C(C)(C)C(=O)NCCc1cnc[nH]1)c1ccccc1)[C@@H](C)CC)[C@@H](C)O)C(N)=O [Peptide 15] ({Malonyl(2,2-Me2,histaminyl)}-[hArg(Et2)][Gly(NCH2CH2Ph)]N[Hyp]A[Phg]GILT[Aoc(2)]-NH2) |  | 
11 | > 10 nM | < 0.1 nM | CCCCCC[C@H](NC(=O)[C@@H](NC(=O)[C@H](CC(C)C)NC(=O)[C@@H](NC(=O)CNC(=O)[C@@H](NC(=O)[C@H](C)NC(=O)[C@@H]1C[C@@H](O)CN1C(=O)[C@H](CC(N)=O)NC(=O)CN(CCc1ccccc1)C(=O)[C@H](CCCNC(=N)N)NC(=O)CCOCCOCCOCCOCCOCCOC)c1ccccc1)[C@@H](C)CC)[C@@H](C)O)C(N)=O [Peptide 22] (X5-R[Gly(NCH2CH2Ph)]N[Hyp]A[Phg]GILT[Aoc(2)]-NH2) |  | 
12 | > 10 nM | < 0.1 nM | CCCCCC[C@H](NC(=O)[C@@H](NC(=O)[C@H](CC(C)C)NC(=O)[C@@H](NC(=O)CNC(=O)[C@@H](NC(=O)[C@H](C)NC(=O)[C@@H]1C[C@@H](O)CN1C(=O)[C@H](CC(N)=O)NC(=O)CN(CCc1ccccc1)C(=O)[C@H](CCCNC(=N)N)NC(=O)CCOCCOCCOCCOCCOCCOCCN)c1ccccc1)[C@@H](C)CC)[C@@H](C)O)C(N)=O [Peptide 3] (H-[PEG6]R[Gly(NCH2CH2Ph)]N[Hyp]A[Phg]GILT[Aoc(2)]-NH2) |  | 
